Results reported in paper PMC5515969, “Effects of 31 FDA approved small-molecule kinase inhibitors on isolated rat liver mitochondria” (Archives of Toxicology, 2016).
Like-named read-outs stand apart in the source and are kept apart here. Marks after values point to notes of the source that are not given here.

Experiments:
[1] = tested on: isolated rat liver mitochondria; assay: Mitochondrial ROS production (CM-H2DCFDA)
[2] = tested on: RCC V; assay: RCC V activity in submitochondrial particles; assay type: biochemical, rat; conditions: for RCC activity V: 15 min, DMSO-treated = 100; on RCC V at 5XCmax: key: 0 indicates that the drug had no effects (negative)
Summary of the method: (§1)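 Abs 340 nm (I/V) or 600 nm (II), 1-min reads × 6 min; 550 nm (III, IV), 10-s reads × 2 min. RCC I = rotenone-free minus rotenone rate. DMSO control = 1.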

[3] = target: T1, RCC II (Rattus norvegicus, UniProt P21913+Q641Z9+Q6PCT8+Q920L2); assay: RCC II activity in submitochondrial particles; assay type: biochemical; parameters: key: activity relative to DMSO-treated controls (control set as 1 = 100%); conditions: DMSO treated samples set as 1
T1 construct: Submitochondrial particles were prepared by subjecting the intact mitochondria to three successive freeze–thaw cycles; from tissue; host or cells: rat liver mitochondria, used as submitochondrial particles
T1 sequence (Q920L2 35-656): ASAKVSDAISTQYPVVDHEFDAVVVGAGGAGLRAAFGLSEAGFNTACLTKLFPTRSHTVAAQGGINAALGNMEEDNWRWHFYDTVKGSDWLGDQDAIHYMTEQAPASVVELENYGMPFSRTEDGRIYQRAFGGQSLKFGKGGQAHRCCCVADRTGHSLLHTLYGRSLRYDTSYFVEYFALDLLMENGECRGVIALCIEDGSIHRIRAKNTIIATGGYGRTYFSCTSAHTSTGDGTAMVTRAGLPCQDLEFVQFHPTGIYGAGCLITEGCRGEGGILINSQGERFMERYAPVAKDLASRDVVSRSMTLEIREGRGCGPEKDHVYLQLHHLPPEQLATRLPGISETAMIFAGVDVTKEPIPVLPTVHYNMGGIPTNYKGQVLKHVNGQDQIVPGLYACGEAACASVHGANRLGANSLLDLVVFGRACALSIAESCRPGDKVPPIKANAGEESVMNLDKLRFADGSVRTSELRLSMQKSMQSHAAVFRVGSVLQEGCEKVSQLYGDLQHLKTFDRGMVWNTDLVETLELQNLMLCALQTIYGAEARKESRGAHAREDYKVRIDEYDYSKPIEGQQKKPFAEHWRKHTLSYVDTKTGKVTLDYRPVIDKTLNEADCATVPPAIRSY
T1 sequence (P21913 31-282): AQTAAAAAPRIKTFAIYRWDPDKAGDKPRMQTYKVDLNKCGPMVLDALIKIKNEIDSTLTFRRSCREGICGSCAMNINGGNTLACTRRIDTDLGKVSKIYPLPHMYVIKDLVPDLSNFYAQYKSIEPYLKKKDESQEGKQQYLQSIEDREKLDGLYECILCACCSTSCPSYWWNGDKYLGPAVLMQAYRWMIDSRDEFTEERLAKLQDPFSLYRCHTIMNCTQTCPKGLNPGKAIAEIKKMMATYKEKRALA
T1 sequence (Q641Z9 1-169): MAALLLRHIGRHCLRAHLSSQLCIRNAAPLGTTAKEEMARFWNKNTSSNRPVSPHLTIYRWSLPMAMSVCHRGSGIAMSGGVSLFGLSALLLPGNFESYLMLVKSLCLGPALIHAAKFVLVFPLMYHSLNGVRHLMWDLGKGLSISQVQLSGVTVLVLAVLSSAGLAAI
T1 sequence (Q6PCT8 57-159): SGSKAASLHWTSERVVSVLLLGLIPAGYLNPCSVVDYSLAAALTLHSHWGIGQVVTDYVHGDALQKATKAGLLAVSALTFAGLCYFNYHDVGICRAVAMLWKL
Summary of the method: as §1

[4] = tested on: RCC IV; assay: RCC IV activity in submitochondrial particles; assay type: biochemical, rat; parameters: key to RCC IV at 50XCmax / RCC IV at 100XCmax: activity relative to DMSO-treated controls (control set as 1 = 100%); conditions: for RCC activity IV: 15 min, DMSO-treated = 100
Summary of the method: as §1

[5] = tested on: isolated rat liver mitochondria; assay: Mitochondrial inner membrane potential (MMP), Rhodamine 123; assay type: biochemical
Text: Fig. 3 KI effects on mitochondrial inner membrane potential (MMP). […] In a, c, data are means and standard derivations from three separate experiments. *p < 0.05 as compared to DMSO-treated samples at the end of experiments. In b, data are means of two independent experiments

[6] = tested on: RCC I; assay: RCC I activity in submitochondrial particles; assay type: biochemical, rat; parameters: key to RCC I at 10XCmax / RCC I at 100XCmax / RCC I at 50XCmax / RCC I at 30XCmax / RCC I at 20XCmax: activity relative to DMSO-treated controls (control set as 1 = 100%); conditions: for RCC activity I: 15 min
Summary of the method: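 First, submitochondrial particles (1 mg/ml) are incubated with inhibitor for 15 min. Next, complex activities are followed spectrophotometrically, with RCC I taken as the difference between buffers lacking and containing rotenone. Finally, activities are expressed relative to DMSO controls set at 1.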

[7] = cited from earlier work
[8] = tested on: isolated rat liver mitochondria; assay: Mitochondrial swelling (absorbance at 535 nm); assay type: biochemical; on Swelling 5XCmax: key: 0 indicates that the drug had no effects (negative)
[9] = tested on: isolated rat liver mitochondria; assay: Mitochondrial oxygen consumption (glutamate/malate or succinate driven, state 4 and state 3); assay type: biochemical; conditions: for Glutamate/malate driven respiration State 3 / Glutamate/malate driven respiration State 4 / Succinate-driven respiration State 3 / Succinate-driven respiration State 4: oxygen consumption, DMSO-treated = 1; on State 3 respiration driven by succinate at 10XCmax: key: 0 indicates that the drug had no effects (negative); on State 3 respiration driven by succinate at 1XCmax: key: 0 indicates that the drug had no effects (negative)
Summary of the method: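 Oxygen uptake on glutamate/malate or on succinate defined state 4; ADP added 3 min later gave state 3. Mitochondria isolated from rat liver by differential centrifugation, adjusted to 1 mg/ml and pretreated 5 min with inhibitor (0.1% DMSO final). Values relative to DMSO control, set to 1.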

[10] = tested on: RCC III; assay: RCC III activity in submitochondrial particles; assay type: biochemical, rat; parameters: key to RCC III at 100XCmax: activity relative to DMSO-treated controls (control set as 1 = 100%); conditions: for RCC activity III: 15 min, DMSO-treated = 100
Summary of the method: as §1

[11] = 1XCmax, DMSO treated samples set as 1
[12] = 2.5XCmax, DMSO treated samples set as 1
[13] = 5XCmax, DMSO treated samples set as 1
[14] = 10XCmax, DMSO treated samples set as 1
[15] = 20XCmax, DMSO treated samples set as 1
[16] = 30XCmax, DMSO treated samples set as 1
[17] = 50XCmax, DMSO treated samples set as 1
[18] = 100XCmax, DMSO treated samples set as 1
[19] = 1XCmax, difference in signal between KI and DMSO treated samples at the end of experiments
[20] = 2.5XCmax, difference in signal between KI and DMSO treated samples at the end of experiments
[21] = 5XCmax, difference in signal between KI and DMSO treated samples at the end of experiments
[22] = 10XCmax, difference in signal between KI and DMSO treated samples at the end of experiments
[23] = 20XCmax, difference in signal between KI and DMSO treated samples at the end of experiments
[24] = 30XCmax, difference in signal between KI and DMSO treated samples at the end of experiments
[25] = 50XCmax, difference in signal between KI and DMSO treated samples at the end of experiments
[26] = 100XCmax, difference in signal between KI and DMSO treated samples at the end of experiments

Cc1cc(Nc2ncc(Cl)c(Nc3ccccc3S(=O)(=O)C(C)C)n2)c(OC(C)C)cc1C1CCNCC1 [Ceritinib]
lowest concentration triggering ROS overproduction [1]: 50 fold Cmax | ROS measured by CM-H2DCFDA at 1XCmax [1, 11]: 0 | ROS measured by CM-H2DCFDA at 2.5XCmax [1, 12]: 0 | ROS measured by CM-H2DCFDA at 5XCmax [1, 13]: 0 | ROS measured by CM-H2DCFDA at 10XCmax [1, 14]: 0 | ROS measured by CM-H2DCFDA at 20XCmax [1, 15]: 0 | ROS measured by CM-H2DCFDA at 30XCmax [1, 16]: 0 | ROS measured by CM-H2DCFDA at 50XCmax [1, 17]: 2.51±0.21 | ROS measured by CM-H2DCFDA at 100XCmax [1, 18]: 1.93±0.49 | effect on ROS production ([1]; highest tested concentrations): significantly ROS production | RCC V at 5XCmax [2, 13]: 0 | RCC activity V ([2]; 50-fold Cmax): 71.23 ± 9.65 % of control | RCC V at 50XCmax [2, 17]: 71.23±9.65 | RCC activity V ([2]; 100-fold Cmax): 34.25 ± 2.09 % of control | RCC V at 100XCmax [2, 18]: 34.25±2.09 | RCC II at 1.0XCmax ([3]; 1.0XCmax): 0 | RCC II at 2.5XCmax ([3]; 2.5XCmax): 0 | RCC II at 5XCmax ([3]; 5XCmax): 0 | RCC II at 10XCmax ([3]; 10XCmax): 0 | RCC II at 20XCmax ([3]; 20XCmax): 0 | RCC II at 30XCmax ([3]; 30XCmax): 0 | RCC II at 50XCmax ([3]; 50XCmax): 0 | RCC II at 100XCmax ([3]; 100XCmax): 69.91±10.00 | RCC activity IV ([4]; 50-fold Cmax): 82.33 ± 3.68 % of control | RCC IV at 50XCmax ([4]; 50XCmax, DMSO treated samples set as 1, in %): 82.33±3.68 | RCC activity IV ([4]; 100-fold Cmax): 71.46 ± 7.39 % of control | RCC IV at 100XCmax ([4]; 100XCmax): 71.46±7.39 | lowest concentration decreasing MMP [5]: 100 fold Cmax | MMP measured by Rhodamine 123 at 1XCmax [5, 19]: 0 | MMP measured by Rhodamine 123 at 2.5XCmax [5, 20]: 0 | MMP measured by Rhodamine 123 at 5XCmax [5, 21]: 0 | MMP measured by Rhodamine 123 at 10XCmax [5, 22]: 0 | MMP measured by Rhodamine 123 at 20XCmax [5, 23]: 0 | MMP measured by Rhodamine 123 at 30XCmax [5, 24]: 0 | MMP measured by Rhodamine 123 at 50XCmax [5, 25]: 0 | MMP measured by Rhodamine 123 at 100XCmax [5, 26]: 4568±757* | effect on MMP ([5]; up to 100-fold Cmax or highest testable concentration): decrease in MMP | RCC I at 10XCmax [6, 14]: 0 | RCC activity I ([6]; 50-fold Cmax, DMSO-treated = 100): 94.04 ± 3.32 % of control | RCC activity I ([6]; 100-fold Cmax, DMSO-treated = 100): 63.74 ± 13.12 % of control | RCC I at 100XCmax ([6]; 100XCmax, DMSO-treated = 100): 63.74±13.12 | DILI potential (based on labeling) ([7]; 1 DILI positive, 0 negative according to labeling, ref product labeling): 1 | Labeling for DILI ([7]; BBW: black box warning, W&P: Warnings and Precautions, ref product labeling): W&P: ALT↑ | labeling for DILI ([7]; W&P warnings and precautions, BBW black box warnings, ref FDA product labeling): W&P: ALT↑/monitoring | DILI potential (based on labeling) ([7]; ref FDA product labeling): 1 | lowest concentration causing mitochondrial swelling [8]: 100 fold Cmax | Swelling 1XCmax [8, 19]: 0 | Swelling 2.5XCmax [8, 20]: 0 | Swelling 5XCmax [8, 21]: 0 | Swelling 10XCmax [8, 22]: 0 | Swelling 20XCmax [8, 23]: 0 | Swelling 30XCmax [8, 24]: 0 | Swelling 50XCmax [8, 25]: 0 | Swelling 100XCmax [8, 26]: 0.54±0.06 | effect on mitochondrial swelling ([8]; up to 100-fold Cmax or highest testable concentration, 25 µM calcium chloride): significant mitochondrial swelling | State 3 respiration driven by glutamate/malate at 1XCmax [9, 11]: 0 | State 3 respiration driven by succinate at 1XCmax [9, 11]: 0 | State 4 respiration driven by glutamate/malate at 1XCmax [9, 11]: 0 | State 4 respiration driven by succinate at 1XCmax [9, 11]: 0 | State 3 respiration driven by glutamate/malate at 2.5XCmax [9, 12]: 0 | State 3 respiration driven by succinate at 2.5XCmax [9, 12]: 0 | State 4 respiration driven by glutamate/malate at 2.5XCmax [9, 12]: 0 | State 4 respiration driven by succinate at 2.5XCmax [9, 12]: 0 | State 3 respiration driven by glutamate/malate at 5XCmax [9, 13]: 0 | State 3 respiration driven by succinate at 5XCmax [9, 13]: 0 | State 4 respiration driven by glutamate/malate at 5XCmax [9, 13]: 0 | State 4 respiration driven by succinate at 5XCmax [9, 13]: 0 | State 3 respiration driven by glutamate/malate at 10XCmax [9, 14]: 0 | State 3 respiration driven by succinate at 10XCmax [9, 14]: 0 | State 4 respiration driven by glutamate/malate at 10XCmax [9, 14]: 0 | State 4 respiration driven by succinate at 10XCmax [9, 14]: 0 | State 3 respiration driven by glutamate/malate at 20XCmax [9, 15]: 0 | State 3 respiration driven by succinate at 20XCmax [9, 15]: 0 | State 4 respiration driven by glutamate/malate at 20XCmax [9, 15]: 0 | State 4 respiration driven by succinate at 20XCmax [9, 15]: 0 | Glutamate/malate driven respiration State 3 ([9]; 30-fold Cmax): 0.88 ± 0.05 | Glutamate/malate driven respiration State 4 ([9]; 30-fold Cmax): 1.12 ± 0.13 | Succinate-driven respiration State 3 ([9]; 30-fold Cmax): 0.41 ± 0.18 | Succinate-driven respiration State 4 ([9]; 30-fold Cmax): 0.70 ± 0.12 | State 3 respiration driven by glutamate/malate at 30XCmax [9, 16]: 0 | State 3 respiration driven by succinate at 30XCmax [9, 16]: 0.41±0.18 | State 4 respiration driven by glutamate/malate at 30XCmax [9, 16]: 0 | State 4 respiration driven by succinate at 30XCmax [9, 16]: 0.70±0.12 | Glutamate/malate driven respiration State 3 ([9]; 50-fold Cmax): 0.55 ± 0.03 | Glutamate/malate driven respiration State 4 ([9]; 50-fold Cmax): 1.21 ± 0.12 | Succinate-driven respiration State 3 ([9]; 50-fold Cmax): 0.45 ± 0.08 | Succinate-driven respiration State 4 ([9]; 50-fold Cmax): 0.77 ± 0.07 | State 3 respiration driven by glutamate/malate at 50XCmax [9, 17]: 0.55±0.03 | State 3 respiration driven by succinate at 50XCmax [9, 17]: 0.45±0.08 | State 4 respiration driven by glutamate/malate at 50XCmax [9, 17]: 1.21±0.12 | State 4 respiration driven by succinate at 50XCmax [9, 17]: 0.77±0.07 | inhibition of mitochondrial oxygen consumption ([9]; 100-fold Cmax): ~100% | Glutamate/malate driven respiration State 3 ([9]; 100-fold Cmax): 0.08 ± 0.02 | Glutamate/malate driven respiration State 4 ([9]; 100-fold Cmax): 0.50 ± 0.06 | Succinate-driven respiration State 3 ([9]; 100-fold Cmax): 0.03 ± 0.02 | Succinate-driven respiration State 4 ([9]; 100-fold Cmax): 0.17 ± 0.10 | State 3 respiration driven by glutamate/malate at 100XCmax [9, 18]: 0.08±0.02 | State 3 respiration driven by succinate at 100XCmax [9, 18]: 0.03±0.02 | State 4 respiration driven by glutamate/malate at 100XCmax [9, 18]: 0.50±0.06 | State 4 respiration driven by succinate at 100XCmax [9, 18]: 0.17±0.10 | lowest concentration significantly affecting mitochondrial oxygen consumption ([9]; tested at 1 to 100-fold Cmax): 30 fold Cmax | RCC activity III ([10]; 50-fold Cmax): 103.80 ± 5.19 % of control | RCC activity III ([10]; 100-fold Cmax): 68.48 ± 6.59 % of control | RCC III at 100XCmax ([10]; 100XCmax): 68.48±6.59
